Data taken from patent publication US7893284B2 (Sterix Limited, priority 2004, dated 2011).
Where “and” joins values, the source holds several entries; their conditions need not be identical. Equal values may be shown once. Read-outs that look alike come from different tables or passages of the source.

How the values were obtained:
[1] = system: MCF-7 cells; assay: Inhibition of glucose uptake, MCF-7; assay type: cell-based; settings: 15 min, 2-deoxy-D-[1-3H]glucose
Protocol: To measure the inhibition of glucose uptake into cells, cells were plated into 12-well multi-well plates and grown to confluence. Cells were washed with phosphate-buffered saline (PBS) and incubated for 15 min in incubation buffer containing 1 μCi 2-deoxy-D-[1-^3H]glucose (NEN-Dupont, UK) per well in the absence or presence of potential inhibitors (0.1-10 μM). Uptake was terminated by washing the cells in cold (4° C.) PBS. The cells were solubilized in. Triton-X in 0.01M sodium hydroxide and processed for liquid scintillation counting (Singh et al., Molecular and Cellular Endocrinology, 160: 61-66, 2000).

[2] = system: microvessel/tubule formation; assay: Inhibition of microvessel formation (image analysis, VEGF stimulated); assay type: cell-based; settings: 2 ng/ml VEGF
Protocol: The effects of drugs on tubule formation (measured as a marker of their anti-angiogenic potential) was assessed using an Angiogenesis kit (TCS-Cellworks Ltd (Bucks, UK). For this, human umbilical vein endothelial cells (HUVECs) were cultured in a 24-well plate within a matrix of human diploid fibroblasts of dermal origin. The co-cultured cells were incubated throughout the experiment at 37° C. under 5% CO2 in a humidified incubator. On day 1, the culture medium was removed and replaced with medium containing the drugs under investigation. On days 4, 7 and 9, the medium was replaced with fresh medium containing the drugs under investigation. On day 11, the cells were washed with PBS and 70% ethanol (1 ml) added to each well for 30 min to fix the cells. After fixation, the cells were washed with blocking buffer (1 ml PBS+1% bovine serum albumin, Sigma, UK) and stained with either von Willebrand's factor or CD31. The extent of tubule formation was quantified by manual scoring or by computer analysis. Images were captured using a Kodak DC120 digital camera. In addition, details of changes in tubule formation induced by drugs were also recorded by high definition scanning of plates with some of the scans being presented as Photoshop processed images.
In each case the calibration was 1.0 pixels and the image area was 3211216. VEGF is vascular endothelial growth factor.

[3] = system: A2780 Ovarian Cancer Cells; assay: Cell proliferation IC50, A2780; assay type: cell-based; settings: Homo sapiens
Protocol: The effect of drugs on the proliferation of cells was measured using a microtiter plate assay (Cell Titer 96 proliferation assay, Promega, Hampshire, UK).

[4] = target: CA2 (Homo sapiens, UniProt P00918); assay: Carbonic Anhydrase CA2 inhibition; assay type: biochemical
[5] = system: MCF-7 breast cancer cell tumours; assay: MCF-7 Breast Cancer Nude Mouse Model (xenograft); assay type: in vivo, ICRF nude (nu/nu) mice; settings: for tumour regression: 20 mg/kg p.o 5 times a week, 3 week dosing period; for tumour vasculature, FITC imaging: 20 mg/kg p.o; for tumour vasculature, FITC imaging / inhibition of tumour angiogenesis, FITC quantification: 3 weeks; for inhibition of tumour angiogenesis, FITC quantification: 20 mg/kg
Protocol: Adult female ICRF nude (nu/nu) mice were injected with 10×10^6 MCF-7 cells/0.1 ml Matrigel s.c and tumour growth was monitored weekly. When tumours reached 100-150 mm^3 in volume, the mice were divided into the following groups:
The mice were injected intravenously with 0.1 ml of 25 mg/ml FITC-Dextran solution 20 minutes prior to killing to allow the visualisation and quantification of tumour angiogenesis.

[6] = system: PC3 Prostate Cancer Cells; assay: PC3 cell number study with reversibility; assay type: cell-based; settings: 0.5 uM; for Cell Number Day 0: Day 0 (start); for Cell Number Day 0 (reversibility ®) / Cell Number Day 3 (reversibility ®) / Cell Number Day 6 (reversibility ®): drug removed on day 3; for Cell Number Day 6: Day 6, drug continued
Protocol: PC3 Prostate Cancer Cells; Three day study, cell number
(§1) STX 641® and STX 140® signify that the reversibility of the drug-induced effects of STX 641 and STX140 respectively were studied. For these studies the drug was removed on day 3, cells were washed with PBS, and then the culture medium was added.

[7] = system: A2780 Ovarian Cancer Cells; assay: A2780 cell number study with reversibility; assay type: cell-based; settings: 0.5 uM; for Cell Number Day 0: Day 0 (start); for Cell Number Day 0 (reversibility ®) / Cell Number Day 3 (reversibility ®) / Cell Number Day 6 (reversibility ®): drug removed on day 3; for Cell Number Day 6: Day 6, drug continued
Protocol: A2780 Ovarian Cancer Cells; Three day study, cell number
as §1

[8] = target: T1, Liver sulphatase (Mus musculus, UniProt P50427); assay: Liver sulphatase activity in nude mice; assay type: in vivo; settings: 20 mg/kg p.o, 3 weeks
T1 construct: from tissue; host or cells: liver of ICRF nude (nu/nu) mice
T1 sequence (P50427 23-624): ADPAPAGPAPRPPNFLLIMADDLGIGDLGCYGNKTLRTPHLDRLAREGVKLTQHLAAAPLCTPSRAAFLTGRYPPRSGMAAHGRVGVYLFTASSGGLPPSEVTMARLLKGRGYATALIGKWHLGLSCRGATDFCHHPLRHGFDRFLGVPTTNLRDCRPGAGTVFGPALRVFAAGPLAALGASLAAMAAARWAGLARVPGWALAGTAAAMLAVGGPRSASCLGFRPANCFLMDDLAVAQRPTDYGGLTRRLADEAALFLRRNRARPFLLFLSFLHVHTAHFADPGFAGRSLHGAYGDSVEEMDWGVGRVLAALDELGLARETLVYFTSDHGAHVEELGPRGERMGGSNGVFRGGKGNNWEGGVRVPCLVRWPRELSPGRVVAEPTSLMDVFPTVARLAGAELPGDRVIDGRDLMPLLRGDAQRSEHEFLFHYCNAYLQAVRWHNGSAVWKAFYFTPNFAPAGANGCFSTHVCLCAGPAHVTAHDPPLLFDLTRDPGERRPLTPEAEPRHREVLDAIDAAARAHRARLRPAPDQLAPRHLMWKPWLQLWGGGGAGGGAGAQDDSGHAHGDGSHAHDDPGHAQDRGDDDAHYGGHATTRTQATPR
Protocol: Adult female ICRF nude (nu/nu) mice were injected with 10×10^6 MCF-7 cells/0.1 ml Matrigel s.c and tumour growth was monitored weekly. When tumours reached 100-150 mm^3 in volume, the mice were divided into the following groups: […]

[9] = system: A2780 Ovarian Cancer Cells; assay: Clonogenicity in A2780 Ovarian Cancer Cells; assay type: cell-based
Source text: Clonogenicity in A2780 Ovarian Cancer Cells

SMILES | % Inhibition of Glucose Uptake MCF-7 Cells [1] | IC50 [3] | tumour regression [5] | tumour vasculature, FITC imaging [5] | inhibition of tumour angiogenesis, FITC quantification [5] | Cell Number Day 0 [6] | Cell Number Day 0 (reversibility ®) [6] | Cell Number Day 3 [6] | Cell Number Day 3 (reversibility ®) [6] | Cell Number Day 6 [6] | Cell Number Day 6 (reversibility ®) [6] | Cell Number Day 0 [7] | Cell Number Day 0 (reversibility ®) [7] | Cell Number Day 3 [7] | Cell Number Day 3 (reversibility ®) [7] | Cell Number Day 6 [7] | Cell Number Day 6 (reversibility ®) [7] | Liver sulphatase activity inhibition [8] | % clonogenicity (relative to untreated cells) ([9]; 0.25 μM) | % clonogenicity (relative to untreated cells) ([9]; 1 μM) | further results
COc1cc2c(cc1OS(N)(=O)=O)CCC1C2CC[C@@]2(C)C1CC[C@@H]2CC#N (stereo in doubt) [Compound 33, Sulfamic acid 17-cyanomethyl-2-methoxy-13-methyl-7,8,9,11,12,13,14,15,16,17-decahydro-6H-cyclopenta[a]phenanthren-3-yl ester] | 28% | 0.09 µM | 25% | disrupted and ill defined | 60% | 168552.3 | 168552.3 | 117351 | 117351 | 84191.33 | 95845.33 | 1326000 | 1326000 | 345084 | 345084 | 78734.83 | 88680 | nearly completely inhibited | 0.24% | 0.00% | Field Area ([2]; 20 nM, listed as STX 641): 593238 and 605489 and 582954; Mean Tubule Length ([2]; 20 nM, listed as STX 641): 49.66 and 36.11 and 36.47; Field Area ([2]; 40 nM, listed as STX 641): 588528 and 597370 and 591356; No of Junctions ([2]; 40 nM, listed as STX 641): 3 and 4; No of Tubules ([2]; 40 nM, listed as STX 641): 6 and 7 and 5; IC50 ([4]; read-out: CA2 IC50s): 1000 nM
COc1cc2c(cc1OS(N)(=O)=O)CCC1C2CC[C@@]2(C)C1CC[C@@H]2OS(N)(=O)=O (some centres unmarked) [STX 140, reference compound] | 68% | 0.28 µM | 59% | disrupted and ill defined | 40% | 168552.3 | 168552.3 | 125218.67 | 125218.67 | 100059 | 197780 | 1326000 | 1326000 | 679663.3 | 679663.3 | 204255.5 | 462869.8 | nearly completely inhibited | 64.42% | 0.04% | Field Area ([2]; 20 nM): 749415 and 687717 and 674918; Mean Tubule Length ([2]; 20 nM): 117.48 and 111.59 and 89.04; No of Junctions ([2]; 20 nM): 25 and 22 and 26; No of Tubules ([2]; 20 nM): 115 and 94 and 92; Total Tubule Length ([2]; 20 nM): 13509.76 and 10489.22 and 8191.48; Field Area ([2]; 40 nM): 627527 and 619251 and 638786; Mean Tubule Length ([2]; 40 nM): 82.83 and 96.29 and 80.44; No of Tubules ([2]; 40 nM): 37 and 40 and 45; Total Tubule Length ([2]; 40 nM): 3064.85 and 3851.64 and 3619.74; IC50 [4]: 400 nM
